Patent US20070129344A1, “Bicyclic 6-alkylidene-penem beta-lactamase inhibitors and beta-lactam antibiotic combination: a broad spectrum antibiotic” (priority 2005, published 2007)
Where a name gives a salt, the structure may show the parent alone. Read-outs that look alike come from different tables or passages of the source.

How the values were obtained:
Assay type in all cases: cell-based
[1] = tested on: E. coli ATCC 25922 (none); test: MIC microbroth dilution; β-lactamase class none
Procedure: (§1) The in vitro activities of the antibiotics were determined by the microbroth dilution method as recommended by the National Committee for Clinical Laboratory Standards (NCCLS). (NCCLS. 2000. Methods for Dilution Antimicrobial Susceptibility Tests for Bacteria That Grow Aerobically; Approved Standards: M7-A5, vol. 19. National Committee for Clinical Laboratory Standards, Villanova, Pa.). Mueller-Hinton II broth (MHBII)(BBL Cockeysville, Md.), was used for the testing procedure. […]. The plates were incubated for 18-22 hours at 35° C. in ambient air.

[2] = tested on: E. coli GC 2804 (imp); test: MIC microbroth dilution; β-lactamase class none
Procedure: as §1

[3] = tested on: E. coli GC 2844 (none); test: MIC microbroth dilution; β-lactamase class none
Procedure: as §1

[4] = tested on: K. pneumoniae GC 7632 TEM-1 KPC-2, SHV-7, SHV-12; test: MIC microbroth dilution; β-lactamase class A, A (Cb'ase), A (ESBL)
Procedure: as §1

[5] = tested on: A. baumannii GC 7684 AmpC, AmpC; test: MIC microbroth dilution; β-lactamase class C
Procedure: as §1

[6] = tested on: A. baumannii GC 7687 AmpC; test: MIC microbroth dilution; β-lactamase class C
Procedure: as §1

[7] = tested on: C. freundii GC 4164 Inducible AmpC; test: MIC microbroth dilution; β-lactamase class C
Procedure: as §1

[8] = tested on: E. aerogenes 1697-MP GC 7845 AmpC; test: MIC microbroth dilution; β-lactamase class C; details: E. aerogenes GC 7845
Procedure: as §1

[9] = tested on: E. cloacae GC 1475 (P99); test: MIC microbroth dilution; β-lactamase class C
Procedure: as §1

[10] = tested on: E. cloacae GC 1477 (AmpC); test: MIC microbroth dilution; β-lactamase class C
Procedure: as §1

[11] = tested on: E. cloacae GC 1712 AmpC-inducible; test: MIC microbroth dilution; β-lactamase class C
Procedure: as §1

[12] = tested on: E. cloacae GC 4142 (AmpC); test: MIC microbroth dilution; β-lactamase class C
Procedure: as §1

[13] = tested on: E. cloacae GC 6991 (AmpC); test: MIC microbroth dilution; β-lactamase class C
Procedure: as §1

[14] = tested on: E. cloacae PT 1494 Inducible AmpC; test: MIC microbroth dilution; β-lactamase class C
Procedure: as §1

[15] = tested on: E. cloacae PT 967 Inducible AmpC; test: MIC microbroth dilution; β-lactamase class C
Procedure: as §1

[16] = tested on: E. coli GC 2894 (AmpC); test: MIC microbroth dilution; β-lactamase class C
Procedure: as §1

[17] = tested on: E. coli GC 6539 CMY-2; test: MIC microbroth dilution; β-lactamase class C
Procedure: as §1

[18] = tested on: K. pneumoniae GC 7820 Act 1; test: MIC microbroth dilution; β-lactamase class C
Procedure: as §1

[19] = tested on: K. pneumoniae GC 7821 DHA 1; test: MIC microbroth dilution; β-lactamase class C
Procedure: as §1

[20] = tested on: K. pneumoniae GC 7822 Act 1; test: MIC microbroth dilution; β-lactamase class C
Procedure: as §1

[21] = tested on: K. pneumoniae GC 7823 Fox 5; test: MIC microbroth dilution; β-lactamase class C
Procedure: as §1

[22] = tested on: K. pneumoniae GC 7824 Fox 5; test: MIC microbroth dilution; β-lactamase class C
Procedure: as §1

[23] = tested on: P. aeruginosa ATCC 27853 AmpC-inducable; test: MIC microbroth dilution; β-lactamase class C
Procedure: as §1

[24] = tested on: P. aeruginosa GC 1763 AmpC-inducible; test: MIC microbroth dilution; β-lactamase class C
Procedure: as §1

[25] = tested on: P. aeruginosa GC 1764 (AmpC); test: MIC microbroth dilution; β-lactamase class C
Procedure: as §1

[26] = tested on: P. aeruginosa GC 3153 Inducible AmpC; test: MIC microbroth dilution; β-lactamase class C
Procedure: as §1

[27] = tested on: S. marcescens GC 4132 (AmpC); test: MIC microbroth dilution; β-lactamase class C
Procedure: as §1

[28] = tested on: S. marcescens GC 4145 Inducible AmpC; test: MIC microbroth dilution; β-lactamase class C
Procedure: as §1

[29] = tested on: S. marcescens PT 696 Inducible AmpC; test: MIC microbroth dilution; β-lactamase class C
Procedure: as §1

[30] = tested on: E. aerogenes GC 7036 TEM-24, Amp C inducable; test: MIC microbroth dilution; β-lactamase class A (ESBL), C
Procedure: as §1

[31] = tested on: E. aerogenes GC 7039 TEM-4, Amp C inducable; test: as above
Procedure: as §1

[32] = tested on: E. cloacae GC 7052 SHV-5, Amp C inducable; test: as above
Procedure: as §1

[33] = tested on: E. cloacae GC 7065 TEM-26, SHV-12 Amp C inducable; test: as above
Procedure: as §1

[34] = tested on: M. morganii GC 1617 TEM-10 + inducible AmpC; test: as above
Procedure: as §1

[35] = tested on: E. coli GC 4971 OXA-1, TEM-1; test: MIC microbroth dilution; β-lactamase class A, D
Procedure: as §1

[36] = Escherichia coli, Cefepime + 4 ug/ml Compound 2, read-out: MIC
[37] = Klebsiella aerogenes, Cefepime + 4 ug/ml Compound 2, read-out: MIC
[38] = Enterobacter cloacae, Cefepime + 4 ug/ml Compound 2, read-out: MIC
[39] = Pseudomonas aeruginosa, Cefepime + 4 ug/ml Compound 2, read-out: MIC
[40] = Serratia marcescens, Cefepime + 4 ug/ml Compound 2, read-out: MIC

In the case of `O=C(O)C1=CS[C@@H]2/C(=C\c3cn4c(n3)COCC4)C(=O)N12` [Compound 2, (5R), (6Z)-6-(5,6-Dihydro-8H-imidazo[2.1-c][1,4]oxazin-2-ylmethylene)-7-oxo-4-thia-1-azabicyclo[3.2.0]hept-2-ene-2-carboxylic Acid, Sodium Salt], the MIC ([1]; Escherichia coli, ATCC25922, E. coli ATCC 25922, Cefepime + 4 ug/ml Compound 2, read-out: MIC) is reported as 0.06 µg/mL, the MIC ([2]; Escherichia coli, Cefepime + 4 ug/ml Compound 2) is reported as < 0.015 µg/mL and the MIC [3, 36] is reported as 0.06 µg/mL. For the same compound, the MIC ([4]; Klebsiella pneumoniae, Cefepime + 4 ug/ml Compound 2, read-out: MIC) was > 16 µg/mL, the MIC ([5]; Acinetobacter baumannii, Cefepime + 4 ug/ml Compound 2, read-out: MIC) was 8 µg/mL and the MIC ([6]; Acinetobacter baumannii, GC7687AMPC, Cefepime + 4 ug/ml Compound 2, read-out: MIC) was 16 µg/mL. For the same compound, the MIC ([7]; Citrobacter freundii, Cefepime + 4 ug/ml Compound 2, read-out: MIC) was 0.12 µg/mL, the MIC [8, 37] was 0.03 µg/mL and the MIC [9, 38] was 0.12 µg/mL. The MIC [10, 38] was 0.25 µg/mL, the MIC [11, 38] was 0.12 µg/mL and the MIC [12, 38] was 0.12 µg/mL. The MIC [13, 38] was 0.5 µg/mL, the MIC [14, 38] was 0.06 µg/mL and the MIC [15, 38] was 0.12 µg/mL. The MIC [16, 36] was 0.06 µg/mL, the MIC ([17]; Escherichia coli, GC6539CMY2, Cefepime + 4 ug/ml Compound 2, read-out: MIC) was 0.06 µg/mL and the MIC ([18]; Klebsiella pneumoniae, GC7820ACT1, K. pneumoniae GC 7820, Cefepime + 4 ug/ml Compound 2, read-out: MIC) was 0.25 µg/mL. For the same compound, the MIC ([19]; Klebsiella pneumoniae, GC7821DHA1, K. pneumoniae GC 7821, Cefepime + 4 ug/ml Compound 2, read-out: MIC) was 0.03 µg/mL, the MIC ([20]; Klebsiella pneumoniae, GC7822ACT1, Cefepime + 4 ug/ml Compound 2, read-out: MIC) was 0.5 µg/mL and the MIC ([21]; Klebsiella pneumoniae, GC7823FOX5, K. pneumoniae GC 7823, Cefepime + 4 ug/ml Compound 2, read-out: MIC) was 0.12 µg/mL. The MIC ([22]; Klebsiella pneumoniae, GC7824FOX5, Cefepime + 4 ug/ml Compound 2, read-out: MIC) was 0.25 µg/mL, the MIC ([23]; Pseudomonas aeruginosa, ATCC27853, Cefepime + 4 ug/ml Compound 2, read-out: MIC) was 2 µg/mL and the MIC [24, 39] was 2 µg/mL. For the same compound, the MIC [25, 39] was 1 µg/mL, the MIC [26, 39] was 8 µg/mL and the MIC [27, 40] was 0.12 µg/mL. For the same compound, the MIC [28, 40] was 0.25 µg/mL, the MIC [29, 40] was 0.06 µg/mL and the MIC [30, 37] was 0.06 µg/mL. The MIC [31, 37] was 0.06 µg/mL, the MIC [32, 38] was 1 µg/mL and the MIC [33, 38] was 0.06 µg/mL. It also gave an MIC ([34]; Morganella morganii, Cefepime + 4 ug/ml Compound 2, read-out: MIC) of 0.12 µg/mL and an MIC [35, 36] of 0.12 µg/mL.
`O=C([O-])C1=CS[C@@H]2/C(=C\c3cn4c(n3)CCC4)C(=O)N12.[Na+]` [Compound 1, (5R), (6Z)-6-(6,7-Dihydro-5H-pyrrolo[1,2-a]imidazol-2-ylmethylene)-7-oxo-4-thia-1-aza-bicyclo[3.2.0]hept-2-ene-2-carboxylic Acid, Sodium Salt] was tested, and the MIC ([1]; E. coli ATCC 25922, Cefepime + 4 ug/ml Compound 1) was 0.03 µg/mL, the MIC ([2]; Cefepime + 4 ug/ml Compound 1) was <0.015 µg/mL and the MIC ([3]; Cefepime + 4 ug/ml Compound 1) was 0.06 µg/mL. For the same compound, the MIC ([4]; Cefepime + 4 ug/ml Compound 1) was 16 µg/mL, the MIC ([5]; Cefepime + 4 ug/ml Compound 1) was 8 µg/mL and the MIC ([6]; Cefepime + 4 ug/ml Compound 1) was 16 µg/mL. The MIC ([7]; Cefepime + 4 ug/ml Compound 1) was 0.06 µg/mL, the MIC ([8]; Cefepime + 4 ug/ml Compound 1) was 0.06 µg/mL and the MIC ([9]; Cefepime + 4 ug/ml Compound 1) was 0.12 µg/mL. The MIC ([10]; Cefepime + 4 ug/ml Compound 1) was 0.25 µg/mL, the MIC ([11]; Cefepime + 4 ug/ml Compound 1) was 0.12 µg/mL and the MIC ([12]; Cefepime + 4 ug/ml Compound 1) was 0.12 µg/mL. For the same compound, the MIC ([13]; Cefepime + 4 ug/ml Compound 1) was 0.50 µg/mL, the MIC ([14]; Cefepime + 4 ug/ml Compound 1) was 0.06 µg/mL and the MIC ([15]; Cefepime + 4 ug/ml Compound 1) was 0.06 µg/mL. It also gave an MIC ([16]; Cefepime + 4 ug/ml Compound 1) of 0.06 µg/mL, an MIC ([17]; Cefepime + 4 ug/ml Compound 1) of 0.06 µg/mL and an MIC ([18]; K. pneumoniae GC 7820, Cefepime + 4 ug/ml Compound 1) of 0.25 µg/mL. The MIC ([19]; K. pneumoniae GC 7821, Cefepime + 4 ug/ml Compound 1) was 0.03 µg/mL, the MIC ([20]; Cefepime + 4 ug/ml Compound 1) was 0.50 µg/mL and the MIC ([21]; K. pneumoniae GC 7823, Cefepime + 4 ug/ml Compound 1) was 0.12 µg/mL. The MIC ([22]; Cefepime + 4 ug/ml Compound 1) was 0.12 µg/mL, the MIC ([23]; Cefepime + 4 ug/ml Compound 1) was 2 µg/mL and the MIC ([24]; Cefepime + 4 ug/ml Compound 1) was 1 µg/mL. For the same compound, the MIC ([25]; Cefepime + 4 ug/ml Compound 1) was 1 µg/mL, the MIC ([26]; Cefepime + 4 ug/ml Compound 1) was 8 µg/mL and the MIC ([27]; Cefepime + 4 ug/ml Compound 1) was 0.12 µg/mL. It also gave an MIC ([28]; Cefepime + 4 ug/ml Compound 1) of 0.12 µg/mL, an MIC ([29]; Cefepime + 4 ug/ml Compound 1) of 0.06 µg/mL and an MIC ([30]; Cefepime + 4 ug/ml Compound 1) of 0.06 µg/mL. It also gave an MIC ([31]; Cefepime + 4 ug/ml Compound 1) of 0.03 µg/mL, an MIC ([32]; Cefepime + 4 ug/ml Compound 1) of 1 µg/mL and an MIC ([33]; Cefepime + 4 ug/ml Compound 1) of 0.06 µg/mL. It also gave an MIC ([34]; Cefepime + 4 ug/ml Compound 1) of 0.12 µg/mL and an MIC ([35]; Cefepime + 4 ug/ml Compound 1) of 0.12 µg/mL.
